Source: paper PMC8151276, “An Integrated Approach toward NanoBRET Tracers for Analysis of GPCR Ligand Engagement” (Molecules, 2021)

Target: T1, RXFP3 (Homo sapiens, UniProt Q9NSD7)
T1 construct: purchased Promega (in-house HiBiT-GPCR construct library, NanoBRET)
T1 sequence (Q9NSD7 1-469): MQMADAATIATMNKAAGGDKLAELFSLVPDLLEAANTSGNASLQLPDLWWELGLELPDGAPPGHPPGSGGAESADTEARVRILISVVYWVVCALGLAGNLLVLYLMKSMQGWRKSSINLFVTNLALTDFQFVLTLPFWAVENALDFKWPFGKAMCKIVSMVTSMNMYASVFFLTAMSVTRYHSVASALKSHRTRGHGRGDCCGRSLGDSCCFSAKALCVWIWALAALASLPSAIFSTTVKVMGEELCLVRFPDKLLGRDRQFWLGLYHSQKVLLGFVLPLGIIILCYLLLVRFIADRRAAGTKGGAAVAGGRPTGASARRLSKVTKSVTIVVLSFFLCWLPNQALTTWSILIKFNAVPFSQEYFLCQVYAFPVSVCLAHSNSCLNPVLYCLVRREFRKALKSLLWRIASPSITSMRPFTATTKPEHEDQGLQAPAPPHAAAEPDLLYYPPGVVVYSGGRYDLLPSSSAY
Assay: NanoBRET screen HiBiT-RXFP3 in HEK293
Type: binding
Method: Each tracer candidate was screened across the entire library of HiBiT-GPCR constructs using NanoBRET as the detection modality. As depicted in Figure 4A, the specificity of interactions was evaluated through decrease in BRET due to competitive displacement of a bound tracer by excess parental compound. Each tracer was analyzed for binding to each HiBiT-GPCR fusion in the absence and in the presence of competing parental compound. Briefly, HEK293 cells were transfected with HiBiT-GPCR constructs diluted into promoterless DNA to reduce expression and maximize translocation to the cell surface. Each tracer candidate was then screened at concentrations of 1 μM and 0.1 μM across cells expressing these fusions. Cells were treated for 1.5 h with tracer either alone or in the presence of 20 μM competing parental compound (i.e., control). BRET was measured upon addition of purified LgBiT and subsequent complementation with HiBiT genetically fused to a GPCR. The specificity of interactions was assessed through a decrease in BRET signal due to competitive displacement of the bound tracer. To further gauge the robustness of these interactions, the fold response over the control (i.e., BRETtracer/BRETcontrol) was calculated. We chose a 1.5-fold response, which translates to ≥7-fold signal over noise as the minimal threshold required to score an interaction as positive. […]. Below we highlight the screening results obtained for our exemplary fluorescent tracers based on Clozapine, Amitriptyline and AZD1283.
HiBiT-GPCR DNA constructs were diluted in 10 mM Tris pH 8 to a final concentration of 0.01 μg/μL, arrayed in 96-well plates and stored at −20 °C. For transfection, HEK293 cells were suspended in Opti-MEM (without phenol red) supplemented with 2% fetal bovine serum (Seradigm) and 100 units/mL penicillin–streptomycin (Gibco) at a final concentration of 220,000 cells/mL and dispensed into white 96-well plates at 90 μL/well. Subsequent transfections and screens were carried using an Agilent Bravo Automated Liquid Handling Platform. First, the 96-well HiBiT DNA arrays were diluted 25-fold in Opti-MEM (without serum or phenol red) to a final concentration of 0.0004 μg/μL and 20 μL of the diluted DNAs were transferred into new 96-well plates. Next, promoterless carrier DNA (1 μg/μL) was diluted 25-fold (0.04 μg/μL) and then dispensed into the diluted arrays at 20 μL/well. Following brief mixing, Viafect transfection reagent (Promega) diluted 16-fold into Opti-MEM was dispensed into the plates at 40 μL/well. After mixing by pipetting, plates were incubated for 10 min on the pipetting station deck. The DNA-transfection reagent complexes were then added to plates containing cells. To facilitate the screen, 10 μL of DNA-transfection reagent complexes were added in duplicates to the top 4 and bottom 4 rows, resulting in two identical 48-well arrays per plate. Plates with transfected cells were incubated for 18–20 h at 37 °C/5% CO2. A screen of each tracer across the entire library using two different concentrations requires duplicate plates of transfected cells. Depending on the number of tracers being screened, transfections can be scaled up using the same ratios. The next day, for each tracer, four 20× screening solutions in tracer dilution buffer (Promega) were prepared: two duplicates at final concentration of 20 μM and two duplicates at a final concentration of 2 μM. A competing unmodified compound was added to one of each duplicate at a final concentration of 400 μM. The four resulting solutions were diluted 4-fold in Opti-MEM without serum or phenol red to generate 5× solutions (5 µM and 0.5 µM tracer +/− 100 μM competing compound). To screen the library, a BioTek MultiFlo FX liquid dispenser was used to dispense 22.5 µL of tracer solution to the top 4 rows and 22.5 µL tracer + competing compound solution to the 4 bottom rows. Plates were briefly mixed on an orbital shaker and incubated for 1.5 h at room temperature. […]

Structure (SMILES): CCOC(=O)c1cc(C#N)c(N2CCC(C(=O)NS(=O)(=O)Cc3ccccc3/C=C/C(=O)NCCNC(=O)CCc3ccc4n3[B-](F)(F)[N+]3=C(c5ccc[nH]5)C=CC3=C4)CC2)nc1C [AZD1283-1-NB590]
- NanoBRET Fold Response (RXFP3, 0.1μM): 0.94
- NanoBRET Fold Response (RXFP3, 1μM): 1.12

Structure (SMILES): N#CN=C(NCCCOc1cccc(CN2CCCCC2)c1)NCCNC(=O)CCOCCOCCOCCOCCNC(=O)CCc1ccc2n1[B-](F)(F)[N+]1=C(c3ccc[nH]3)C=CC1=C2 [Aminopotentidine-2-NB590]
- NanoBRET Fold Response (RXFP3, tracer 0.1μM): 1.04
- NanoBRET Fold Response (RXFP3, tracer 1μM): 0.97

Structure (SMILES): CN(C)CCC=C1c2ccccc2CCc2ccc(C(=O)NCCNC(=O)CCOCCOCCOCCOCCNC(=O)CCc3ccc4n3[B-](F)(F)[N+]3=C(c5ccc[nH]5)C=CC3=C4)cc21 [Amitriptyline-a-2-NB590]
- NanoBRET Fold Response (tracer at 0.1μM): 0.97
- NanoBRET Fold Response (tracer at 1μM): 0.99

Structure (SMILES): CN(C)CCC=C1c2ccccc2CCc2ccc(C(=O)NCCNC(=O)CCOCCOCCOCCOCCNC(=O)CCc3ccc4n3[B-](F)(F)[N+]3=C(c5ccc[nH]5)C=CC3=C4)cc21 [Amitriptyline-b-2-NB590]
- NanoBRET Fold Response (tracer at 0.1μM, listed as amitriptyline-b-2-NB590): 0.98
- NanoBRET Fold Response (tracer at 1μM, listed as amitriptyline-b-2-NB590): 1.03

Structure (SMILES): COc1ccc2c(n1)c(CCNC(C)=O)cn2CCNC(=O)CCc1ccc2n1[B-](F)(F)[N+]1=C(c3ccc[nH]3)C=CC1=C2 [Azamelatonin-1-NB590]
- NanoBRET Fold Response (0.1μM tracer): 1.07
- NanoBRET Fold Response (1μM tracer): 1.11

Structure (SMILES): COc1ccc2[nH]c(-c3ccc(CNC(=O)CCOCCOCCOCCOCCNC(=O)CCc4ccc5n4[B-](F)(F)[N+]4=C(c6ccc[nH]6)C=CC4=C5)cc3)c(CCNC(C)=O)c2n1 [AzomelatoninICO9-2-NB590]
- NanoBRET Fold Response (0.1μM tracer): 0.89
- NanoBRET Fold Response (1μM tracer): 1.22

Structure (SMILES): O=C(CCOCCOCCOCCOCCNC(=O)CCc1ccc2n1[B-](F)(F)[N+]1=C(c3ccc[nH]3)C=CC1=C2)NCCCN1CCN(C2=Nc3cc(Cl)ccc3Nc3ccccc32)CC1 [Clozapine-a-2-NB590]
- NanoBRET Fold Response (RXFP3, 0.1μM tracer): 1.04
- NanoBRET Fold Response (RXFP3, 1μM tracer): 0.96

Structure (SMILES): CN1CCN(C2=Nc3cc(Cl)ccc3Nc3ccc(CNC(=O)CCOCCOCCOCCOCCNC(=O)CCc4ccc5n4[B-](F)(F)[N+]4=C(c6ccc[nH]6)C=CC4=C5)cc32)CC1 [Clozapine-b-2-NB590]
- NanoBRET Fold Response (RXFP3, 0.1μM tracer): 0.99
- NanoBRET Fold Response (RXFP3, 1μM tracer): 1.04

Structure (SMILES): CN1CCN(C2=Nc3cc(Cl)ccc3N(CC(=O)NCCOCCOCCOCCOCCNC(=O)CCc3ccc4n3[B-](F)(F)[N+]3=C(c5ccc[nH]5)C=CC3=C4)c3ccccc32)CC1 [Clozapine-c-2-NB590]
- NanoBRET Fold Response (RXFP3, 0.1μM tracer): 0.99
- NanoBRET Fold Response (RXFP3, 1μM tracer): 1.05

Structure (SMILES): O=C(CCOCCOCCOCCOCCNC(=O)CCc1ccc2n1[B-](F)(F)[N+]1=C(c3ccc[nH]3)C=CC1=C2)NCCCN1CCN(C2=Nc3ccccc3Oc3ccc(Cl)cc32)CC1 [Loxapine-a-2-NB590]
- NanoBRET Fold Response (RXFP3, tracer 0.1μM): 1.11
- NanoBRET Fold Response (RXFP3, tracer 1μM): 1.22

Structure (SMILES): COc1ccccc1N1CCN(CCCCN2C(=O)c3ccc(CNC(=O)CCOCCOCCOCCOCCNC(=O)CCc4ccc5n4[B-](F)(F)[N+]4=C(c6ccc[nH]6)C=CC4=C5)cc3C2=O)CC1 [NAN-190-2-NB590]
- NanoBRET Fold Response (RXFP3, tracer 0.1μM): 1.02

Structure (SMILES): COc1ccccc1N1CCN(CCCCN2C(=O)c3ccc(CNC(=O)CCOCCNC(=O)c4ccc(CNC(=O)CCc5ccc6n5[B-](F)(F)[N+]5=C(c7ccc[nH]7)C=CC5=C6)cc4)cc3C2=O)CC1 [NAN-190-3-NB590]
- NanoBRET Fold Response (RXFP3, tracer 0.1μM): 1.08
- NanoBRET Fold Response (RXFP3, tracer 1μM): 0.95

Structure (SMILES): O=C(CCc1ccc2n1[B-](F)(F)[N+]1=C(c3ccc[nH]3)C=CC1=C2)NCc1ccc(C(=O)NCCOCCC(=O)N[C@@H]2CC[C@@]3(O)[C@H]4Cc5ccc(O)c6c5[C@@]3(CCN4CC3CC3)[C@H]2O6)cc1 [Naltrexone-3-NB590]
- NanoBRET Fold Response (RXFP3, tracer 0.1μM): 0.98
- NanoBRET Fold Response (RXFP3, tracer 1μM): 1.05

Structure (SMILES): Cc1cc2c(s1)Nc1ccccc1N=C2N1CCN(CCCNC(=O)CCOCCOCCOCCOCCNC(=O)CCc2ccc3n2[B-](F)(F)[N+]2=C(c4ccc[nH]4)C=CC2=C3)CC1 [Olanzapine-a-2-NB590]
- NanoBRET Fold Response (RXFP3, tracer 0.1μM): 0.97
- NanoBRET Fold Response (RXFP3, tracer 1μM): 1.11

Structure (SMILES): O=C(CCc1ccc2n1[B-](F)(F)[N+]1=C(c3ccc[nH]3)C=CC1=C2)NCc1ccc(C(=O)NCCOCCOCCNCC(O)COc2cccc3ccccc23)cc1 (stereo not drawn) [Propranolol-3-NB590]
- NanoBRET Fold Response (RXFP3, 0.1μM): 1.14
- NanoBRET Fold Response (RXFP3, 1μM): 1.08

Structure (SMILES): O=C(CCc1ccc2n1[B-](F)(F)[N+]1=C(c3ccc[nH]3)C=CC1=C2)NCCOCCOCCNC(=O)OCCOCCN1CCN(C2=Nc3ccccc3Sc3ccccc32)CC1 [Quetiapine-a-2-NB590]
- NanoBRET Fold Response (RXFP3, tracer 0.1μM): 0.88
- NanoBRET Fold Response (RXFP3, tracer 1μM): 0.92

Structure (SMILES): Cc1nc2n(c(=O)c1CCN1CCC(c3noc4cc(F)ccc34)CC1)CCCC2OC(=O)NCCOCCOCCOCCOCCNC(=O)CCc1ccc2n1[B-](F)(F)[N+]1=C(c3ccc[nH]3)C=CC1=C2 (stereo not drawn) [Risperidone-2-NB590]
- NanoBRET Fold Response (RXFP3, tracer 0.1μM): 1.00
- NanoBRET Fold Response (RXFP3, tracer 1μM): 1.00

Structure (SMILES): CC(C)N(CC[C@H](c1ccccc1)c1cc(CCNC(=O)CCOCCOCCOCCOCCNC(=O)CCc2ccc3n2[B-](F)(F)[N+]2=C(c4ccc[nH]4)C=CC2=C3)ccc1O)C(C)C [Tolterodine-2-NB590]
- NanoBRET Fold Response (RXFP3, tracer 0.1μM): 1.18
- NanoBRET Fold Response (RXFP3, tracer 1μM): 1.10

Structure (SMILES): CC(C)N(CC[C@H](c1ccccc1)c1cc(CCNC(=O)c2ccc(CNC(=O)CCc3ccc4n3[B-](F)(F)[N+]3=C(c5ccc[nH]5)C=CC3=C4)cc2)ccc1O)C(C)C [Tolterodine-BZ-NB590]
- NanoBRET Fold Response (RXFP3, tracer 0.1μM): 1.01
- NanoBRET Fold Response (RXFP3, tracer 1μM): 1.19

Structure (SMILES): CCCn1c(=O)c2[nH]c(-c3ccc(OCC(=O)NCCNC(=O)CCOCCNC(=O)c4ccc(CNC(=O)CCc5ccc6n5[B-](F)(F)[N+]5=C(c7ccc[nH]7)C=CC5=C6)cc4)cc3)nc2n(CCC)c1=O [XAC-3-NB590]
- NanoBRET Fold Response (RXFP3, tracer 0.1μM): 0.95
- NanoBRET Fold Response (RXFP3, tracer 1μM): 0.92
